PubChem BioAssay (NCI)
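How tested: cells in 96-well plates exposed to compound for 48 hours at five concentrations. TGI is the concentration that stops growth completely.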 Calls of active or inactive are those of the source. Rule as the data show it: active = GI50 below about 0.43 µM; inactive = the rest.

Columns and labels:
Test in all cases: growth of human tumour cells (NCI), 48 h
[1] = test system: MALME-3M melanoma
[2] = test system: RXF 393 renal
[3] = test system: HOP-92 NSCLC
[4] = test system: LOX IMVI melanoma
[5] = test system: NCI-H522 lung
[6] = test system: A549 NSCLC
[7] = test system: OVCAR-5 ovarian
[8] = test system: SNB-19 CNS
[9] = test system: HCT-116 colon
[10] = test system: KM12 colon
[11] = test system: HL-60(TB) leukemia
[12] = test system: COLO 205 colon
[13] = test system: DLD-1 colon
[14] = test system: EKVX NSCLC
[15] = test system: MOLT-4 leukemia
[16] = test system: DMS 273 small cell lung
[17] = test system: HOP-62 NSCLC
[18] = test system: SN12C renal
[19] = test system: SK-MEL-5 melanoma
[20] = test system: RXF-631 renal
[21] = test system: SK-MEL-28 melanoma
[22] = test system: TK-10 renal
[23] = test system: CAKI-1 renal
[24] = test system: OVCAR-8 ovarian
[25] = test system: KM20L2 colon
[26] = test system: SK-MEL-2 melanoma
[27] = test system: SF-539 CNS
[28] = test system: 786-0 renal
[29] = test system: SR leukemia
[30] = test system: SF-268 CNS
[31] = test system: SF-295 CNS
[32] = test system: UACC-62 melanoma
[33] = test system: HT29 colon
[34] = test system: XF 498 CNS
[35] = test system: M19-MEL melanoma
[36] = test system: CCRF-CEM leukemia
[37] = test system: K-562 leukemia
[38] = test system: IGROV1 ovarian
[39] = test system: OVCAR-3 ovarian
[40] = test system: NCI-H226 lung
[41] = test system: NCI-H23 lung
[42] = test system: DMS 114 small cell lung
[43] = test system: RPMI-8226 leukemia
[44] = test system: SW-620 colon
[45] = test system: LXFL 529 NSCLC
[46] = test system: ACHN renal
[47] = test system: NCI-H460 lung
[48] = test system: U251 CNS
[49] = test system: HCT-15 colon
[50] = test system: UACC-257 melanoma
[51] = test system: SK-OV-3 ovarian
[52] = test system: HCC-2998 colon
[53] = test system: UO-31 renal
[54] = test system: M14 melanoma
[55] = test system: OVCAR-4 ovarian
[56] = test system: SNB-78 CNS
[57] = test system: SNB-75 CNS
[58] = test system: DU-145 prostate
[59] = test system: MDA-MB-435
[60] = test system: PC-3 prostate
[61] = test system: MCF7 breast
[62] = test system: HS 578T breast
[63] = test system: T-47D breast
[64] = test system: A498 renal
[65] = test system: MDA-N
[66] = test system: HOP-18 NSCLC
[67] = test system: NCI/ADR-RES ovarian
[68] = test system: BT-549 breast
[69] = test system: MDA-MB-231 breast

In the case of `CCC12CCCN(Cc3ccccc3)C1c1c(n(C)c3ccccc13)[C@H](C(=O)OC)C2` (some centres not stated), the TGI [1] is reported as > 239 µM, the TGI [2] is reported as > 239 µM and the TGI [3] is reported as 238 µM. The TGI [4] was > 239 µM, the TGI [5] was > 239 µM and the TGI [6] was > 239 µM. The TGI [7] was > 239 µM, the TGI [8] was > 239 µM and the TGI [9] was > 239 µM. For the same compound, the TGI [10] was > 239 µM, the TGI [11] was > 239 µM and the TGI [12] was > 239 µM. For the same compound, the TGI [13] was > 239 µM, the TGI [14] was > 239 µM and the TGI [15] was > 239 µM. The TGI [16] was > 239 µM, the TGI [17] was > 239 µM and the TGI [18] was > 239 µM. For the same compound, the TGI [19] was > 239 µM, the TGI [20] was > 239 µM and the TGI [21] was > 239 µM. The TGI [22] was > 239 µM, the TGI [23] was > 239 µM and the TGI [24] was > 239 µM. For the same compound, the TGI [25] was > 239 µM, the TGI [26] was > 239 µM and the TGI [27] was > 239 µM. For the same compound, the TGI [28] was > 239 µM, the TGI [29] was > 239 µM and the TGI [30] was > 239 µM. The TGI [31] was > 239 µM, the TGI [32] was > 239 µM and the TGI [33] was 142 µM. The TGI [34] was > 239 µM, the TGI [35] was > 239 µM and the TGI [36] was > 239 µM. For the same compound, the TGI [37] was > 239 µM, the TGI [38] was > 239 µM and the TGI [39] was > 239 µM. The TGI [40] was > 239 µM, the TGI [41] was > 239 µM and the TGI [42] was > 239 µM. The TGI [43] was > 239 µM, the TGI [44] was > 239 µM and the TGI [45] was > 239 µM. The TGI [46] was > 239 µM, the TGI [47] was > 239 µM and the TGI [48] was > 239 µM. For the same compound, the TGI [49] was > 239 µM, the TGI [50] was > 239 µM and the TGI [51] was > 239 µM. For the same compound, the TGI [52] was > 239 µM.

For `C/C(O)=C/c1nc2ccccc2[nH]1`, the TGI [1] was > 100 µM, the TGI [2] was > 100 µM and the TGI [4] was > 100 µM. The TGI [5] was > 100 µM, the TGI [6] was > 100 µM and the TGI [7] was > 100 µM. For the same compound, the TGI [8] was > 100 µM, the TGI [9] was > 100 µM and the TGI [10] was > 100 µM. The TGI [11] was > 100 µM, the TGI [12] was > 100 µM and the TGI [13] was > 100 µM. For the same compound, the TGI [14] was > 100 µM, the TGI [15] was > 100 µM and the TGI [18] was > 100 µM. The TGI [19] was > 100 µM, the TGI [20] was > 100 µM and the TGI [21] was > 100 µM. The TGI [53] was > 100 µM, the TGI [23] was > 100 µM and the TGI [54] was > 100 µM. For the same compound, the TGI [24] was > 100 µM, the TGI [25] was > 100 µM and the TGI [26] was > 100 µM. The TGI [27] was > 100 µM, the TGI [28] was > 100 µM and the TGI [29] was > 100 µM. The TGI [30] was > 100 µM, the TGI [31] was > 100 µM and the TGI [32] was > 100 µM. For the same compound, the TGI [33] was > 100 µM, the TGI [34] was > 100 µM and the TGI [55] was > 100 µM. For the same compound, the TGI [35] was > 100 µM, the TGI [36] was > 100 µM and the TGI [37] was > 100 µM. The TGI [38] was > 100 µM, the TGI [39] was > 100 µM and the TGI [56] was > 100 µM. The TGI [57] was 78.8 µM, the TGI [40] was > 100 µM and the TGI [41] was > 100 µM. The TGI [43] was > 100 µM, the TGI [44] was > 100 µM and the TGI [45] was > 100 µM. The TGI [46] was > 100 µM, the TGI [47] was > 100 µM and the TGI [48] was > 100 µM. For the same compound, the TGI [49] was > 100 µM, the TGI [50] was > 100 µM and the TGI [52] was > 100 µM.

For `O=C(/C=C/c1ccc(OCCSCCCCCCCCCCSCCOc2ccc(/C=C/C(=O)c3ccc(Cl)cc3)cc2)cc1)c1ccc(Cl)cc1`, the TGI [1] was > 100 µM, the TGI [2] was > 80.6 µM and the TGI [3] was 81.6 µM. The TGI [4] was > 100 µM, the TGI [58] was > 100 µM and the TGI [5] was > 100 µM. For the same compound, the TGI [6] was > 100 µM, the TGI [59] was > 100 µM and the TGI [7] was > 100 µM. The TGI [8] was > 100 µM, the TGI [9] was > 100 µM and the TGI [10] was > 100 µM. For the same compound, the TGI [11] was > 100 µM, the TGI [12] was > 100 µM and the TGI [13] was > 100 µM. For the same compound, the TGI [14] was > 100 µM, the TGI [15] was > 100 µM and the TGI [16] was > 100 µM. The TGI [17] was 95.4 µM, the TGI [18] was > 100 µM and the TGI [19] was > 100 µM. The TGI [20] was > 100 µM, the TGI [21] was > 100 µM and the TGI [60] was > 100 µM. The TGI [53] was > 100 µM, the TGI [61] was > 100 µM and the TGI [22] was > 100 µM. The TGI [23] was > 100 µM, the TGI [54] was > 100 µM and the TGI [24] was > 100 µM. For the same compound, the TGI [25] was > 100 µM, the TGI [62] was > 100 µM and the TGI [26] was > 100 µM. The TGI [27] was > 81.7 µM, the TGI [28] was > 100 µM and the TGI [29] was > 100 µM. For the same compound, the TGI [63] was > 100 µM, the TGI [30] was > 100 µM and the TGI [31] was > 97.6 µM. For the same compound, the TGI [32] was > 100 µM, the TGI [33] was > 100 µM and the TGI [55] was > 100 µM. For the same compound, the TGI [35] was > 100 µM, the TGI [36] was > 100 µM and the TGI [37] was > 100 µM. For the same compound, the TGI [64] was > 100 µM, the TGI [38] was > 100 µM and the TGI [39] was > 100 µM. The TGI [65] was > 100 µM, the TGI [56] was > 100 µM and the TGI [57] was 63.3 µM. The TGI [40] was > 100 µM, the TGI [41] was > 100 µM and the TGI [42] was > 100 µM. The TGI [66] was > 100 µM, the TGI [43] was > 100 µM and the TGI [67] was > 100 µM. The TGI [44] was > 100 µM, the TGI [45] was > 100 µM and the TGI [68] was > 100 µM. For the same compound, the TGI [46] was > 100 µM, the TGI [69] was > 100 µM and the TGI [47] was > 100 µM. The TGI [48] was > 100 µM, the TGI [49] was > 100 µM and the TGI [50] was > 100 µM. The TGI [51] was > 92.8 µM and the TGI [52] was > 100 µM.

With `C[C@@]1(CO)O[C@H]1CCC#C[Si](C)(C)C` the outcome [1] was “inactive”, the outcome [2] was “inactive” and the outcome [3] was “inactive”. For the same compound, the outcome [4] was “inactive”, the outcome [5] was “inactive” and the outcome [6] was “inactive”. The outcome [7] was “inactive”, the outcome [8] was “inactive” and the outcome [10] was “inactive”. For the same compound, the outcome [11] was “inactive”, the outcome [12] was “inactive” and the outcome [13] was “inactive”. The outcome [14] was “inactive”, the outcome [15] was “inactive” and the outcome [16] was “inactive”. For the same compound, the outcome [17] was “inactive”, the outcome [18] was “inactive” and the outcome [20] was “inactive”. For the same compound, the outcome [53] was “inactive”, the outcome [22] was “inactive” and the outcome [23] was “inactive”. The outcome [54] was “inactive”, the outcome [24] was “inactive” and the outcome [25] was “inactive”. For the same compound, the outcome [26] was “inactive”, the outcome [27] was “inactive” and the outcome [28] was “inactive”. The outcome [29] was “inactive”, the outcome [30] was “inactive” and the outcome [31] was “inactive”. For the same compound, the outcome [32] was “inactive”, the outcome [33] was “inactive” and the outcome [34] was “inactive”. For the same compound, the outcome [55] was “inactive”, the outcome [36] was “inactive” and the outcome [37] was “inactive”. The outcome [38] was “inactive”, the outcome [39] was “inactive” and the outcome [56] was “inactive”. For the same compound, the outcome [57] was “inactive”, the outcome [40] was “inactive” and the outcome [41] was “inactive”. For the same compound, the outcome [43] was “inactive”, the outcome [44] was “inactive” and the outcome [45] was “inactive”. The outcome [46] was “inactive”, the outcome [47] was “inactive” and the outcome [48] was “inactive”. The outcome [49] was “inactive”, the outcome [50] was “inactive” and the outcome [51] was “inactive”.
